Data set [1] concerns cell line derived from Lewis lung carcinoma (LLC). Description: Effect of suppressing invasion of cancer cells (CytoSelect invasion assay kit). In kind it is cell-based. The conditions noted are these: sample 0.001% by mass 24 h, then atmospheric dust 500 μg/mL 6 h + 18 h, fluorescence relative to control without dust = 1, dust + water = 1.67. The method, then:
The effect of the inositol derivative on suppressing the invasion of cancer in a cell line derived from Lewis lung carcinoma (LLC, JCRB Cell Bank) was measured under the following conditions. A CytoSelect invasion assay kit manufactured by Cell Biolabs, Inc. was used for a test. The LLC cells were seeded in a chamber plate for invasion tests attached to the above-mentioned invasion assay kit so that the concentration was 100000 cells/mL using a culture medium in which a Ham F10 medium and an L15 medium (both manufactured by Sigma-Aldrich) were mixed at the ratio of 3:7 (volume ratio), and cultured for 24 hours under the conditions of 37° C. and 5% CO2. Next, an aqueous solution of the inositol derivative or an aqueous solution of myo-inositol was added to the culture medium so that the final concentration of the inositol derivative or myo-inositol was 0.001% by mass, or water (pure water) was added to the culture medium, and culturing was further performed for 24 hours. […] Thereafter, the cells were stained using the above-mentioned invasion assay kit, and the fluorescence intensity at an excitation wavelength of 480 nm/an absorption wavelength of 570 nm was measured with a microplate reader i-Control (manufactured by Tecan Group Ltd.). […]

The test system of another data set is ARNT gene. Description: Suppression of ARNT gene expression induced by atmospheric dust (quantitative real-time PCR). The conditions noted are these: NHEK; sample 0.001% by mass 24 h, then atmospheric dust (NIST 1648a) 500 μg/mL 48 h; standardized to GAPDH; control without dust = 1; dust + water = 1.74. In kind it is cell-based, human. The method, then: The effect of the inositol derivative on suppressing the expression of an ARNT gene in normal human epidermal keratinocytes (NHEK, manufactured by KURABO INDUSTRIES LTD.) was measured under the following conditions. The NHEK cells were seeded in a HuMedia KG2 medium manufactured by KURABO INDUSTRIES LTD. at the seeding density of 10000 cells/cm^2, and cultured for 24 hours under the conditions of 37° C. and 5% CO2. Next, an aqueous solution of the inositol derivative or an aqueous solution of myo-inositol was added to the culture medium so that the final concentration of the inositol derivative or myo-inositol was 0.001% by mass, or water (pure water) was added to the culture medium, and culturing was further performed for 24 hours. […] Using this cDNA as a template, the expression level of the ARNT gene was quantitatively determined by quantitative real-time PCR using a primer specific to the ARNT gene (Perfect Real Time Primer, manufactured by Takara Bio Inc.). As an internal standard gene, the expression level of GAPDH was quantitatively determined (primer used: Perfect Real Time Primer, manufactured by Takara Bio Inc.), and the expression level of the ARNT gene was standardized based on the expression level of GAPDH. […]
For orientation: In qPCR the cycle at which signal appears reflects the starting amount.

In another data set the test system is CYP1A1 gene. Description: Suppression of CYP1A1 gene expression induced by atmospheric dust (quantitative real-time PCR). In kind it is cell-based, human. Particulars: NHEK; sample 0.001% by mass 24 h, then atmospheric dust (NIST 1648a) 500 μg/mL 48 h; standardized to GAPDH; control without dust = 1; dust + water = 4.11. The method, then:
The effect of the inositol derivative on suppressing the expression of a CYP1A1 gene and a CYP1B1 gene in normal human epidermal keratinocytes (NHEK, manufactured by KURABO INDUSTRIES LTD.) was measured under the following conditions.
The NHEK cells were seeded in a HuMedia KG2 medium manufactured by KURABO INDUSTRIES LTD. at the seeding density of 10000 cells/cm^2, and cultured for 24 hours under the conditions of 37° C. and 5% CO2. […] Using this cDNA as a template, the expression levels of the CYP1A1 gene and the CYP1B1 gene were quantitatively determined by quantitative real-time PCR using primers (QuantiTect Primer Assays, manufactured by QIAGEN) specific to the CYP1A1 gene and the CYP1B1 gene. As an internal standard gene, the expression level of a GAPDH gene, which is a housekeeping gene in which expression fluctuation due to the addition of atmospheric dust is not shown, was quantitatively determined (primer used: Perfect Real Time Primer, manufactured by Takara Bio Inc.), and the expression levels of the CYP1A1 gene and the CYP1B1 gene were standardized based on the expression level of GAPDH. […]

In the case of `O[C@H]1[C@H](O)[C@@H](O)[C@H](O)[C@@H](O)[C@H]1O` [myo-Inositol, myo-inositol], the Relative cell invasion in data set [1] was determined as 1.53. Further, the “Relative gene expression level ARNT” value in the data set on ARNT gene was 1.85. In addition, the “Relative gene expression level CYP1A1” value with CYP1A1 gene is given as 3.10.

Values taken from patent US20220257621A1, “CANCER CELL PROLIFERATION SUPPRESSION AGENT AND COMPOSITION FOR SUPPRESSING PROLIFERATION OF CANCER CELLS” (SHOWA DENKO K.K., priority 2019, published 2022).
